Experimental data reported in the NIST ThermoML archive (doi:10.1021/acs.jced.8b00192).
± gives the expanded uncertainty stated by the source.

Tests used:
[1] = Crystal; DTA
[2] = Molar enthalpy of transition or fusion; details: Crystal; DSC

SMILES | Normal melting temperature [1] | Molar enthalpy of transition or fusion [2]
CC(=O)c1cccc([N+](=O)[O-])c1 [1-(3-nitrophenyl)ethanone] | 76.53 ± 1.1 °C | 3.86 ± 0.21 kcal/mol
CC(=O)c1ccc([N+](=O)[O-])cc1 [1-(4-nitrophenyl)ethanone] | 81.00 ± 1.1 °C | 5.72 ± 0.225 kcal/mol
